Each block holds one compound with its values, some of them ahead of it.
Settings: [M+H]+; instrument: TW; Major Mix IMS/Tof Calibration Kit (Waters)

Structure (SMILES): CCN(CC)CCc1c[nH]c2ccccc12 ["NN-Diethyltryptamine"]
collision cross section (N2): 148.6 Å²

Structure (SMILES): CN(C)CCc1c[nH]c2ccccc12 ["NN-Dimethyltryptamine"]
collision cross section (N2): 143.5 Å²

Structure (SMILES): Cc1ccc(/C(=C\CN2CCCC2)c2cccc(/C=C/C(=O)O)n2)cc1 [Acrivastine]
collision cross section (N2): 193.9 Å²

Structure (SMILES): COc1cc2nc(N(C)CCCNC(=O)C3CCCO3)nc(N)c2cc1OC (centres undefined) [Alfuzosin]
collision cross section (N2): 194.6 Å²

Structure (SMILES): OCc1nnc2n1-c1ccc(Cl)cc1C(c1ccccc1)=NC2 [Alprazolam-M alpha-Hydroxy]
collision cross section (N2): 173.3 Å²

Structure (SMILES): C=CCc1ccccc1OCC(O)CNC(C)C (centres undefined) [Alprenolol]
collision cross section (N2): 159.5 Å²

Structure (SMILES): CCCCc1oc2ccccc2c1C(=O)c1cc(I)c(OCCN(CC)CC)c(I)c1 [Amiodarone]
collision cross section (N2): 226.4 Å²

Structure (SMILES): CN(C)CC/C=C1\c2ccccc2CC(O)c2ccccc21 (centres undefined) [Amitriptylin-M (E)-10-hydroxy]
collision cross section (N2): 167.6 Å²

Structure (SMILES): CN(C)CCC=C1c2ccccc2CCc2ccccc21 [Amitriptyline]
collision cross section (N2): 167.2 Å²

Structure (SMILES): CCOC(=O)C1=C(COCCN)NC(C)=C(C(=O)OC)C1c1ccccc1Cl (centres undefined) [Amlodipine]
collision cross section (N2): 188 Å²

Structure (SMILES): Clc1ccc2c(c1)C(N1CCNCC1)=Nc1ccccc1O2 [Amoxapine]
collision cross section (N2): 170.2 Å²

Structure (SMILES): NCC(CC(=O)O)c1ccc(Cl)cc1 (centres undefined) [Baclofen]
collision cross section (N2): 149.2 Å²

Structure (SMILES): C[C@@H](Cc1ccccc1)N(C)Cc1ccccc1 [Benzphetamine]
collision cross section (N2): 154.8 Å²

Structure (SMILES): CN1[C@@H]2CC[C@H]1C[C@@H](OC(c1ccccc1)c1ccccc1)C2 [Benztropine]
collision cross section (N2): 180.8 Å²

Structure (SMILES): CC(C)NCC(O)COc1ccc(COCCOC(C)C)cc1 (centres undefined) [Bisoprolol]
collision cross section (N2): 192.2 Å²

Structure (SMILES): CCC(NC)C(=O)c1ccc2c(c1)OCO2 (centres undefined) [Butylone]
collision cross section (N2): 151 Å²

Structure (SMILES): CCC(Br)(CC)C(=O)NC(N)=O [Carbromal]
collision cross section (N2): 139.8 Å²

Structure (SMILES): Clc1ccc(C(c2ccccc2)N2CCNCC2)cc1 (centres undefined) [Cetirizine-M N-desalkyl]
collision cross section (N2): 168.4 Å²

Structure (SMILES): CCN(CC)CCCC(C)Nc1ccnc2cc(Cl)ccc12 (centres undefined) [Chloroquine]
collision cross section (N2): 176.8 Å²

Structure (SMILES): CN(C)CC/C=C1/c2ccccc2Sc2ccc(Cl)cc21 [Chlorprothixene]
collision cross section (N2): 170.1 Å²

Structure (SMILES): C(=C\c1ccccc1)/CN1CCN(C(c2ccccc2)c2ccccc2)CC1 [Cinnarizine]
collision cross section (N2): 206.2 Å²

Structure (SMILES): CNCCC[C@@]1(c2ccc(F)cc2)OCc2cc(C#N)ccc21 [Citalopram-M N-desmethyl]
collision cross section (N2): 178.7 Å²

Structure (SMILES): Clc1cccc(Cl)c1NC1=NCCN1 [Clonidine]
collision cross section (N2): 144 Å²

Structure (SMILES): Clc1ccc2c(c1)N=C(N1CCNCC1)c1ccccc1N2 [Clozapine-M nor]
collision cross section (N2): 173.8 Å²

Structure (SMILES): Clc1ccc2c(c1)CCc1cccnc1C2=C1CCNCC1 [Desloratadine]
collision cross section (N2): 175.5 Å²

Structure (SMILES): CN(C)CC(c1ccc(O)cc1)C1(O)CCCCC1 (centres undefined) [Desvenlafaxine]
collision cross section (N2): 166.7 Å²

Structure (SMILES): Cc1cccc(Cc2cnc[nH]2)c1C [Detomidine]
collision cross section (N2): 146.8 Å²

Structure (SMILES): COc1ccc2c3c1O[C@H]1[C@@H](O)CC[C@H]4[C@@H](C2)N(C)CC[C@@]341 [Dihydrocodeine]
collision cross section (N2): 168.6 Å²

Structure (SMILES): COc1ccc([C@@H]2Sc3ccccc3N(CCN(C)C)C(=O)[C@@H]2OC(C)=O)cc1 [Diltiazem]
collision cross section (N2): 197.8 Å²

Structure (SMILES): CC(CCc1ccc(O)cc1)NCCc1ccc(O)c(O)c1 (centres undefined) [Dobutamine]
collision cross section (N2): 168.2 Å²

Structure (SMILES): CCN1CC(CCN2CCOCC2)C(c2ccccc2)(c2ccccc2)C1=O (centres undefined) [Doxapram]
collision cross section (N2): 183.4 Å²

Structure (SMILES): CN(C)CCC=C1c2ccccc2COc2ccccc21 [Doxepin]
collision cross section (N2): 164.3 Å²

Structure (SMILES): CN1CCC[C@@H]1Cc1c[nH]c2ccc(CCS(=O)(=O)c3ccccc3)cc12 [Eletriptan]
collision cross section (N2): 186.1 Å²

Structure (SMILES): N=C(N)Nc1nc(CSCCC(=N)NS(N)(=O)=O)cs1 [Famotidine]
collision cross section (N2): 165.9 Å²

Structure (SMILES): O=C(NCC1CCCCN1)c1cc(OCC(F)(F)F)ccc1OCC(F)(F)F (centres undefined) [Flecainide]
collision cross section (N2): 192.2 Å²

Structure (SMILES): O=C1CN=C(c2ccccc2)c2cc(Cl)ccc2N1CC(F)(F)F [Halazepam]
collision cross section (N2): 170.9 Å²

Structure (SMILES): CC(=O)O[C@H]1C=C[C@H]2[C@H]3Cc4ccc(O)c5c4[C@@]2(CCN3C)[C@H]1O5 [Heroin-M 6-MAM]
collision cross section (N2): 175.1 Å²

Structure (SMILES): CCCCn1cc(C(=O)c2cccc3ccccc23)c2ccccc21 [JWH-073]
collision cross section (N2): 182.5 Å²

Structure (SMILES): CCN(CC)C(=O)[C@@H]1C=C2c3cccc4[nH]cc(c34)C[C@H]2N(C)C1 [LSD]
collision cross section (N2): 179.5 Å²

Structure (SMILES): CN1C(=O)C(O)N=C(c2ccccc2Cl)c2cc(Cl)ccc21 (centres undefined) [Lormetazepam]
collision cross section (N2): 169.5 Å²

Structure (SMILES): CCC(Cc1ccc2c(c1)OCO2)NC (centres undefined) [MBDB]
collision cross section (N2): 148.4 Å²

Structure (SMILES): CCNC(C)Cc1ccc2c(c1)OCO2 (centres undefined) [MDEA]
collision cross section (N2): 147.5 Å²

Structure (SMILES): CC(=O)OC1CC[C@H]2[C@@H]3CC[C@H]4CC(=O)C=C(C)[C@]4(C)[C@H]3CC[C@]12C (some centres undefined) [Metenolone acetate]
collision cross section (N2): 187.6 Å²

Structure (SMILES): Cc1ccccc1-n1c(C)nc2ccccc2c1=O [Methaqualone]
collision cross section (N2): 155 Å²

Structure (SMILES): CCNC1(c2cccc(OC)c2)CCCCC1=O (centres undefined) [Methoxetamine]
collision cross section (N2): 159.6 Å²

Structure (SMILES): c1ccc2c(c1)Cc1cccnc1N1CCNCC21 (centres undefined) [Mirtazapine-M N-desmethyl]
collision cross section (N2): 156.9 Å²

Structure (SMILES): Oc1ccc2c3c1OC1C(O)C=CC4C(C2)NCCC341 (centres undefined) [Morphine-M Nor]
collision cross section (N2): 161.5 Å²

Structure (SMILES): COc1ccc(N2CCNCC2)cc1 [N-(p-Methoxyphenyl)piperazine (pMeOPP)]
collision cross section (N2): 141.9 Å²

Structure (SMILES): C=CCN1CC[C@]23c4c5ccc(O)c4O[C@H]2C(=O)CC[C@@]3(O)[C@H]1C5 [Naloxone]
collision cross section (N2): 171.8 Å²

Structure (SMILES): C[C@]12CC[C@H]3[C@@H](CCC4=CC(=O)CC[C@@H]43)[C@@H]1CC[C@@H]2O [Nandrolone]
collision cross section (N2): 167.5 Å²

Structure (SMILES): COc1ccc(Cc2nccc3cc(OC)c(OC)cc23)cc1OC [Papaverine]
collision cross section (N2): 185.3 Å²

Structure (SMILES): CC(C)=CCN1CCC2(C)c3cc(O)ccc3CC1C2C (centres undefined) [Pentazocine]
collision cross section (N2): 173.5 Å²

Structure (SMILES): CCCC(NC)C(=O)c1ccccc1 (centres undefined) [Pentedrone]
collision cross section (N2): 145.7 Å²

Structure (SMILES): CCN(CC)CCOCCOC(=O)C1(c2ccccc2)CCCC1 [Pentoxyverine]
collision cross section (N2): 175.5 Å²

Structure (SMILES): CC1NCCOC1c1ccccc1 (centres undefined) [Phenmetrazine]
collision cross section (N2): 138.9 Å²

Now from value to compound:

collision cross section (N2): 163.9 Å²
Structure (SMILES): OC(Cn1cncn1)(Cn1cncn1)c1ccc(F)cc1F [Fluconazole]

collision cross section (N2): 165.8 Å²
Structure (SMILES): CCOC(=O)c1ncn2c1CN(C)C(=O)c1cc(F)ccc1-2 [Flumazenil]

collision cross section (N2): 176.5 Å²
Structure (SMILES): CNCCC(Oc1ccc(C(F)(F)F)cc1)c1ccccc1 (centres undefined) [Fluoxetine]

collision cross section (N2): 177 Å²
Structure (SMILES): COCCCC/C(=N\OCCN)c1ccc(C(F)(F)F)cc1 [Fluvoxamine]

collision cross section (N2): 178.6 Å²
Structure (SMILES): COc1ccc(CC(C)NCC(O)c2ccc(O)c(NC=O)c2)cc1 (centres undefined) [Formoterol]

collision cross section (N2): 186.6 Å²
Structure (SMILES): C[C@]12CCC(=O)C=C1CC[C@@H]1[C@@H]2[C@@H](O)C[C@@]2(C)[C@H]1CC[C@]2(O)C(=O)CO [Hydrocortisone]

collision cross section (N2): 166.5 Å²
Structure (SMILES): CN(C)CCCN1c2ccccc2CCc2ccccc21 [Imipramine]

collision cross section (N2): 144.6 Å²
Structure (SMILES): c1ccc([C@H]2CN3CCSC3=N2)cc1 [Levamisole]

collision cross section (N2): 174.3 Å²
Structure (SMILES): CNC[C@@H](C)CN1c2ccccc2Sc2ccc(OC)cc21 [Levomepromazine-M N-desmethyl]

collision cross section (N2): 157.7 Å²
Structure (SMILES): CCN(CC)CC(=O)Nc1c(C)cccc1C [Lidocaine]

collision cross section (N2): 222.7 Å²
Structure (SMILES): CN(C)C(=O)C(CCN1CCC(O)(c2ccc(Cl)cc2)CC1)(c1ccccc1)c1ccccc1 [Loperamide]

collision cross section (N2): 200.3 Å²
Structure (SMILES): CCCCc1nc(Cl)c(CO)n1Cc1ccc(-c2ccccc2-c2nn[nH]n2)cc1 [Losartan]

collision cross section (N2): 129.8 Å²
Structure (SMILES): CC(=O)Nc1cccc(O)c1 [Metacetamol]

collision cross section (N2): 173.2 Å²
Structure (SMILES): CCN(CC)CCNC(=O)c1cc(Cl)c(N)cc1OC [Metoclopramide]

collision cross section (N2): 164.5 Å²
Structure (SMILES): CN1CCN2c3ccccc3Cc3ccccc3C2C1 (centres undefined) [Mianserin]

collision cross section (N2): 150.4 Å²
Structure (SMILES): Cc1[nH]c(=O)c(C#N)cc1-c1ccncc1 [Milrinone]

collision cross section (N2): 161 Å²
Structure (SMILES): CN1CCN2c3ncccc3Cc3ccccc3C2C1 (centres undefined) [Mirtazapine]

collision cross section (N2): 197.8 Å²
Structure (SMILES): COCCOC(=O)C1=C(C)NC(C)=C(C(=O)OC(C)C)C1c1cccc([N+](=O)[O-])c1 (centres undefined) [Nimodipine]

collision cross section (N2): 168.4 Å²
Structure (SMILES): CN/C(=C\[N+](=O)[O-])NCCSCc1csc(CN(C)C)n1 [Nizatidine]

collision cross section (N2): 194.3 Å²
Structure (SMILES): COc1ccc2c(c1OC)C(=O)O[C@@H]2[C@H]1c2c(cc3c(c2OC)OCO3)CCN1C [Noscapine]

collision cross section (N2): 175.5 Å²
Structure (SMILES): Cc1cc2c(s1)Nc1ccccc1N=C2N1CCN(C)CC1 [Olanzapine]

collision cross section (N2): 153.8 Å²
Structure (SMILES): NC(=O)N1c2ccccc2CC(=O)c2ccccc21 [Oxcarbazepine]

collision cross section (N2): 183.2 Å²
Structure (SMILES): Fc1ccc([C@@H]2CCNC[C@H]2COc2ccc3c(c2)OCO3)cc1 [Paroxetine]

collision cross section (N2): 137.7 Å²
Structure (SMILES): Cc1cc(=O)n(-c2ccccc2)n1C [Phenazone]

Source: the C3SDB collision cross section collection
